Measurements published in patent publication US10351519B2, “Sulfamate derivative compounds, processes for preparing them and their uses” (BIO-PHARM SOLUTIONS CO., LTD., priority 2016, dated 2019).

Legend:
Type in all cases: in vivo
[1] = system: ICR mice; experiment: Chemical induced seizure model (BIC); details: for ED50: Mus musculus, ip
Experimental: (§1) Male ICR mice (purchased from Orient Bio Inc. Korea) of body weight 19-26 g were used for these studies. The test materials were administered intraperitoneal route in a volume of 10 ul/g weight. Pharmacological effects of all the test materials were evaluated to compared test groups (n=6) with a control group (n=6). Control group was administrated vehicle, only. The peak time was determined by administration test material's random dose for 0.5-4 hour. The time that the most protect was defined peak time and ED50 was determined by other dose administration at peak time. BIC was dissolved in 0.9% saline and administered subcutaneously (s.c.) at its CD97 (convulsive dose 97%) the dose of BIC that produced clonic seizures in 97% into a loose fold of skin in the midline of the neck in a volume of 10 ul/g body weight. The animals were then transferred to observation cages and observed continuously for 30 min. Clonic seizure was elicited in approximately 95% of control group. Protection was defined as complete absence of a clonic seizure over the 30-min observation period. The time that the most protect was defined peak time and ED50 was determined by other dose administration at peak time. The effective dose of compound necessary to protect against seizures to 50% of controls (i.e. ED50) was determined by log probit analysis using Excel 2007 (Microsoft).

[2] = system: ICR mice; experiment: Chemical induced seizure model (strychnine); details: intraperitoneal
Experimental: as §1, with “weight 19-27” for “weight 19-26”, “for 0.5, 1, 2” for “for 0.5-4”, “time. Strychnine” for “time. BIC”, “administered intraperitoneally (i.p.)” for “administered subcutaneously (s.c.)”, “of strychnine” for “of BIC”, “97%” for “97% into a loose fold of skin in the midline of the neck”

[3] = system: ICR mice; experiment: Writhing test (0.6% acetic acid); details: for ED50: Mus musculus, po
Experimental: To examine the pain relief effect of the sulfamate compounds, a writhing test was conducted, referring to Fischer, L. G. et al. (2008).
ICR mice (male, 24-28 g; Orient Bio, Korea) were habituated before test in test room for 1 hour. Animals were fasted 2 hr, before administration of compounds. Each of Compounds was orally administered at the three dose, 10 ul/g, by bodyweight (All compounds were dissolved in a vehicle of 30% (v/v) PEG 400 or 20% (v/v) Tween 80. The control group was treated with the vehicle without compounds.
0.25-2 hour after the administration of Compounds, 0.6% acetic acid at the dose of 10 ul/g, by bodyweight was injected into the mice. Animals were habituated in the cage for 5 min. 5 min after habituation, the number of writhes (abdominal constriction) was conted for 15 min, referring to Korzeniewska-Rybicka, I. et al. (1998) and compared with that of a control.

Structure (SMILES) | BIC(ip) Peak Time [1] [h] | ED50 [1] [mg/kg] | ED50 ([2]; Mus musculus, ip, read-out: Strychnine test ED50) [mg/kg] | Strychnine test Peak Time [2] [h] | Writhing test(po) Peak Time [3] [h] | ED50 [3] [mg/kg]
C[C@H](OS(N)(=O)=O)[C@@H](O)c1c(Cl)cccc1Cl [Example 7, (1S, 2S)-1-(2,6-dichlorophenyl)-1-hydroxypropan-2-yl sulfamate] | 1 | 30.8 | 75.8 | 0.5 | 0.5 | 69.6
C[C@@H](OS(N)(=O)=O)[C@H](O)c1c(Cl)cccc1Cl [Example 8, (1R, 2R)-1-(2,6-dichlorophenyl)-1-hydroxypropan-2-yl sulfamate] | 1 | 73.9 |  |  | 0.25 | 50.6
